This passage reports melting point and IC50 results from patent US20180065917A1, “IMMUNE CHECKPOINT INHIBITORS, COMPOSITIONS AND METHODS THEREOF” (Polaris Pharmaceuticals, Inc., priority 2016, published 2018).

In series [1] the target is T1, PD-L1/PD-1 complex formation (Homo sapiens, UniProt Q9NZQ7).
T1 construct: purchased BPS Bioscience
Nature of the series: PD-L1/PD-1 Interaction Assay (ELISA platform). In kind it is binding. To be noted: human PD-1-Fc coated plates, PD-L1-Fc-biotin 0.1 μg/ml, compounds pre-incubated 2 hours. A digest of the protocol: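 Human PD-1-Fc coated at 0.5 μg/ml; compounds pre-incubated 2 h at room temperature with biotinylated PD-L1-Fc (0.1 μg/ml final), then 2 h on plate. Bound PD-L1 detected by streptavidin-HRP/TMB at OD450; percent inhibition of complex formation calculated.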

T1 sequence (Q9NZQ7 19-239 limits assumed, one chain of several): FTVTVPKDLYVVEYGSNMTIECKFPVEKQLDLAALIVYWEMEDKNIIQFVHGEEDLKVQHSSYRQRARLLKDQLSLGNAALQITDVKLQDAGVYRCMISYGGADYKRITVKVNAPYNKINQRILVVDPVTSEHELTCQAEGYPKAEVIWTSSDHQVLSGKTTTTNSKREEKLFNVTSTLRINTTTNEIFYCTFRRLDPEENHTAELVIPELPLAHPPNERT

As a reminder, the melting point is the temperature, or range, at which the solid turns liquid. One may read the IC50 as the concentration at which inhibition is half-maximal. High values mean weaker potency in that assay, low ones greater potency in that assay. `Cc1c(COc2ccc(CN3CCCC[C@H]3C(=O)O)cc2Br)cccc1-c1cccc(COc2ccc(CN3CCCC[C@H]3C(=O)O)cc2Br)c1C` [Example 1, (2S,2′S)-1,1′-(((((2,2′-dimethyl-[1,1′-biphenyl]-3,3′-diyl)bis(methylene))bis(oxy))bis(3-bromo-4,1-phenylene))bis(methylene))bis(piperidine-2-carboxylic acid)] returned a melting point of 222 to 226 °C. Also, the IC50 in series [1] was in the range of 0.1 to 10 nM.
The corresponding values for `Cc1c(COc2ccc(CN3C[C@@H](O)C[C@H]3C(=O)O)cc2Br)cccc1-c1cccc(COc2ccc(CN3C[C@@H](O)C[C@H]3C(=O)O)cc2Br)c1C` [Example 7, (2S,2'S,4S,4′S)-1,1′-(((((2,2′-Dimethyl-[1,1′-biphenyl]-3,3′-diyl)bis(methylene))bis(oxy))bis(3-bromo-4,1-phenylene))bis(methylene))bis(4-hydroxypyrrolidine-2-carboxylic acid)] are 260 to 264 °C and 0.1 to 10 nM.
Taken in the same sequence, the figures for `Cc1c(COc2ccc(CN3CCCC[C@H]3C(=O)O)cc2C(F)(F)F)cccc1-c1cccc(COc2ccc(CN3CCCC[C@H]3C(=O)O)cc2C(F)(F)F)c1C` [Example 13, (2S,2′S)-1,1′-(((((2,2′-Dimethyl-[1,1′-biphenyl]-3,3′-diyl)bis(methylene))bis(oxy))bis(3-(trifluoromethyl)-4,1-phenylene))bis(methylene))bis(piperidine-2-carboxylic acid)] were 287 to 291 °C and 0.1 to 10 nM.
Consider `Cc1c(COc2ccc(CN3CCCC[C@H]3C(=O)O)cc2Cl)cccc1-c1cccc(COc2ccc(CN3CCCC[C@H]3C(=O)O)cc2Cl)c1C` [Example 12, (2S,2′S)-1,1′-(((((2,2′-Dimethyl-[1,1′-biphenyl]-3,3′-diyl)bis(methylene))bis(oxy))bis(3-chloro-4,1-phenylene))bis(methylene))bis(piperidine-2-carboxylic acid)], for which the melting point fell in the range of 184 to 188 °C. This molecule also had an IC50 in series [1] of 11 to 100 nM.
Taken in the same sequence, the figures for `Cc1c(COc2ccc(CN3CCCC[C@H]3C(=O)O)cc2O)cccc1-c1cccc(COc2ccc(CN3CCCC[C@H]3C(=O)O)cc2O)c1C` [Example 21, (2S,2′S)-1,1′-(((((2,2′-Dimethyl-[1,1′-biphenyl]-3,3′-diyl)bis(methylene))bis(oxy))bis(3-hydroxy-4,1-phenylene))bis(methylene))bis(piperidine-2-carboxylic acid)] were 143 to 147 °C and 1010 to 30000 nM.
The molecule `Cc1c(COc2ccc(CN3CCCC[C@H]3C(=O)O)cc2F)cccc1-c1cccc(COc2ccc(CN3CCCC[C@H]3C(=O)O)cc2F)c1C` [Example 19, (2S,2′S)-1,1′-(((((2,2′-Dimethyl-[1,1′-biphenyl]-3,3′-diyl)bis(methylene))bis(oxy))bis(3-fluoro-4,1-phenylene))bis(methylene))bis(piperidine-2-carboxylic acid)] had a melting point of 205 to 209 °C. Besides, in series [1], the IC50 fell in the range of 110 to 1000 nM.
The corresponding values for `CC(=O)NCCNCc1ccc(OCc2cccc(-c3cccc(COc4ccc(CNCCNC(C)=O)cc4Br)c3C)c2C)c(Br)c1` [Example 6, N,N′-(((((((2,2′-Dimethyl-[1,1′-biphenyl]-3,3′-diyl)bis(methylene))bis(oxy))bis(3-bromo-4,1-phenylene))bis(methylene))bis(azanediyl))bis(ethane-2,1-diyl))diacetamide] are 95 to 99 °C and 11 to 100 nM.
